Data: patent EP1878738A1, “ALLERGY-SUPPRESSIVE COMPOSITION, ALLERGY-SUPPRESSIVE FOOD AND ALLERGY-SUPPRESSIVE AGENT” (priority 2005, dated 2006)
Read-outs that look alike come from different tables or passages of the source.

How the values were obtained:
[1] = tested on: Bifidobacterium; assay: Example 4: improvement of enterobacterial flora in germfree mice, proportion of Bifidobacterium; type: in vivo; conditions: orally administered for 5 days
Excerpt: In this Example 4, the effect of improving the enterobacterial flora of each composition composed of fructooligosaccharide was compared, using germfree mice. The fructooligosaccharide is composed of kestose (trisaccharide), nystose (tetrasaccharide) and F-nystose (pentasaccharide). The kestose used in this Example 4 is composed of 1-kestose (99.0%), nystose (0.5%) and sucrose (0.5%). The nystose is composed of nystose (99.0%), 1-kestose (0.9%) and sucrose (0.1 %). The F-nystose is composed of F-nystose (82.0%), other pentasaccharides (13.0%) and other components (5.0%). Additionally, control groups of mice dosed with sterile water and dosed with usual fructooligosaccharide (1-kestose: 35.8 weight %, nystose: 50.9 weight %, F-nystose: 8.5 weight %) were prepared and their data were obtained for comparison. […] Each oligosaccharide was orally administered to germfree mice for 5 days to determine the proportion of Bifidobacterium proliferated to total bacterial count.

[2] = tested on: anti-OVA IgG1; assay: Example 2: oral immune tolerance, serum anti-OVA IgG1 by ELISA in human-flora associated mice; type: in vivo; conditions: 1-kestose-administered group, 41 without 1-kestose, germfree mice 1583
Experimental: (§1) In Example 2, to examine the effect of 1-kestose on the production of IgG1 and IgE, 1-kestose was administered to germfree […] to measure IgG1 and IgE amounts in the serum before and after giving 1-kestose.
(§2) In this Example 2, the mice used in the experiment were male […] with 4 weeks of age born and grown in a germfree condition (BALB/c), with 10 to 15 rats as a group. These mice were orally provided with 0.5ml of a liquid obtained by diluting feces of human infants 100 times and observed in a germfree condition for two weeks. Afterward, 5mg of ovalbumin (OVA) was orally administered to the mice for 4 days. To examine the existence of immune tolerance, a liquid obtained by adding 0.1 mg of aluminum hydroxide gel to 1 µg of OVA was injected into the abdominal cavity, 1, 3, 5 and 7 weeks after orally administering OVA. These human-flora associated mice were separated into 1-kestose-administered group and non-administered control group and anti-OVA IgG1 and anti-OVA IgE in the serum were measured by ELISA method, 9 weeks after administering 1-kestose.

[3] = tested on: anti-OVA IgE; assay: Example 2: oral immune tolerance, serum anti-OVA IgE by ELISA in human-flora associated mice; type: in vivo; conditions: 1-kestose-administered group, 204 without 1-kestose, germfree mice 496
Experimental: as §1, §2

[4] = tested on: nonspecific IgE; assay: Example 3: nonspecific IgE in human serum before and after taking 1-kestose; type: in vivo; conditions: adult with allergic symptoms, 3g for one month, standard value 366
Excerpt: In this Example 3, to examine the effect of 1-kestose on IgE amount in the human serum, the subjects were given 1-kestose to measure nonspecific IgE amount in the serum before and after taking 1-kestose.

[5] = tested on: Bifidobacterium; assay: Example 6: effective amount of 1-kestose, Bifidobacterium count in feces; type: in vivo, human; conditions: for minimal effective dose: Bifidobacterium, po, read-out: effective amount of 1-kestose per 1kg body weight
Excerpt: (§3) According to the results of each above-mentioned Example, it was confirmed that an adult can have the effect of 1-kestose as prebiotics with a daily dose of 3g. […] The subjects were 4 health adult males whose age ranges from 38 to 56. The subject A is 67kg, subject B is 56kg, subject C is 59kg and subject D is 63kg in weight.
In the experiment, feces were first collected from each subject before taking 1-kestose, and counts of Bifidobacterium, Lactobacillus, Clostridium and total bacteria were measured. Then, they took 1g of 1-kestose once a day for 2 weeks. 15 days later, feces were collected from each subject to measure intestinal bacteria. Afterward, they took no 1-kestose for one week. From the 22nd day, they took 3g of 1-kestose once a day for two weeks, and feces were collected from each subject on the 36th day to measure intestinal bacteria. Figure 13 and Figure 14 show the results.

[6] = Example 6: 1-kestose intake with no side effect (diarrhea, organs, blood); parameters: species or system human; conditions: in vivo
Excerpt: Meanwhile, the 1-kestose intake with no side effect was examined.

[7] = tested on: nonspecific IgE; assay: Example 5: nonspecific IgE after 1-kestose and after fructooligosaccharide intake; type: in vivo, human
Experimental: In this Example 5, the subjects were 4 adult females (from 27 to 45 years old) with daily allergic symptoms. They took 1-kestose and fructooligosaccharide and nonspecific IgE of each subject was measured. In this experiment, nonspecific IgE before taking the substances was measured and then the subjects took 3g of 1-kestose after eating once a day for 4 weeks. The blood was collected 5 weeks later to measure nonspecific IgE and afterward they took no substances for 2 weeks. Then, the subjects took 3g of fructooligosaccharide after eating once a day for 4 weeks and the blood was collected. The 1-kestose used in this Example 5 has a purity of 95% or more, and the commercially-available fructooligosaccharide is a nystose-dominant oligosaccharide composed of nystose (51 %) and 1-kestose (36%). In the experiment, the subjects took less health foods like prebiotics and probiotics containing other oligosaccharides and Lactobacillus.

[8] = Volunteer experiment on bowel movement, daily dose 2g; type: in vivo, human; conditions: daily dose of 2g; volunteer subjects
Excerpt: as §3

[9] = in vivo
Excerpt: The subjects were 2 volunteer patients with allergic symptoms (adult male and female each). They took 3g of 1-kestose for one month and blood components like nonspecific IgE in the serum were examined.

[10] = tested on: IgA; assay: Example 1: IgA in feces by ELISA before and after taking 1-kestose; type: in vivo, human
Excerpt: (§4) The composition, containing 1-kestose used in this Example 1, is of a 1-kestose purity of 98%, composed of 1-kestose (98 weight %), nystose (1.0 weight %) and sucrose (1.0 weight %). An allergy-suppressive composition, having 1-kestose as an active ingredient, was given to 4 adult males having allergic symptoms, with each dose of 3g for one month. The feces before and after the composition was taken were collected to measure IgA and intestinal bacteria in the feces.
To measure IgA, the collected feces were diluted 20 times with phosphate buffered saline (PBS) and supernatant was collected by a centrifugal separator. Then, the liquid was diluted 10 times with water to make a sample for measurement. Also, an anti-human IgA mouse monoclonal antibody (product of Nacalai Tesque Inc.), and a horseradish peroxidase (HRP)-labeled antibody by labeling the antihuman IgA mouse monoclonal antibody with HRP were prepared. Afterward, IgA was measured using ELISA method.

[11] = tested on: infants with atopic dermatitis; assay: Example 7: clinical test in infants with atopic dermatitis, eruption severity; type: in vivo, human
Excerpt: (§5) The test subjects were 13 infants with atopic dermatitis and mild and severe eruption (age: 0 to 3 years old) in which food allergic symptoms were accompanied. The test was approved by parents of the subjects.
(§6) In the clinical test, the subjects were kept under observation for 2 weeks and they took 1-kestose with a purity of 98% mixed with water or juice once a day for 12 weeks. The subjects at age 1 or under were provided with 1g of 1-kestose a day and those at age 2 to 3 took 2g of 1-kestose a day. The test subjects used no external preparation of steroid for one month or more before taking 1-kestose. During the test, the subjects were treated mainly with a humectant and took food allergen removing food.
(§7) The subjects were diagnosed at the start of, 6 and 12 weeks after taking 1-kestose, and 4 to 8 weeks after the intake completion to assess the clinical test results (examination of dermis severity and stool samples). The inspection 4 to 8 weeks after the intake completion was aimed at examining drug efficacy sustaining effect. In the stool sample inspection, feces were collected form the subjects to calculate bifidobacterial occupancy in the feces. The eruption severity was examined using Severity Determination Method by Region of Severity Discussion Committee of Japanese Dermatological Association, in which by separating the entire body into 5 regions: head, anterior and posterior parts of the trunk, upper and lower extremities, the sum of comprehensive assessments is calculated in each region (on 0 to 4 scales).

[12] = tested on: Bifidobacterium; assay: Example 7: clinical test, bifidobacterial occupancy in feces; type: in vivo, human; conditions: before 30.1 %
Excerpt: as §5, §6, §7

[13] = tested on: Bifidobacterium; assay: Example 1: intestinal bacteria in feces, anaerobic plate culture (Bifidobacterium); type: in vivo, human; conditions: after 3g for one month
Excerpt: as §4
Meanwhile, to measure intestinal bacteria, a sample liquid for measurement was dripped on a flat-plate agar medium by 0.05ml and applied thereon. After anaerobic culture of the sample at 35°C for 3 to 5 days, the bacteria were identified and bacterial count was found.

[14] = type: in vivo, human; conditions: many subjects; 1g or 2g a day for 12 weeks
Excerpt: as §6, with “The test subjects were 13 infants with atopic dermatitis and mild and severe eruption (age: 0 to 3 years old) in which food allergic symptoms were accompanied. The test was approved by parents of the subjects. In” for “In”

OC[C@H]1O[C@@](CO)(OC[C@@]2(OC[C@@]3(OC[C@@]4(O[C@H]5O[C@H](CO)[C@@H](O)[C@H](O)[C@H]5O)O[C@H](CO)[C@@H](O)[C@@H]4O)O[C@H](CO)[C@@H](O)[C@@H]3O)O[C@H](CO)[C@@H](O)[C@@H]2O)[C@@H](O)[C@@H]1O [F-nystose]
proportion of Bifidobacterium proliferated to total bacterial count [1]: 7.94%

OC[C@H]1O[C@@](CO)(OC[C@@]2(OC[C@@]3(O[C@H]4O[C@H](CO)[C@@H](O)[C@H](O)[C@H]4O)O[C@H](CO)[C@@H](O)[C@@H]3O)O[C@H](CO)[C@@H](O)[C@@H]2O)[C@@H](O)[C@@H]1O [nystose]
proportion of Bifidobacterium proliferated to total bacterial count [1]: 7.94%

OC[C@H]1O[C@@](CO)(OC[C@@]2(O[C@H]3O[C@H](CO)[C@@H](O)[C@H](O)[C@H]3O)O[C@H](CO)[C@@H](O)[C@@H]2O)[C@@H](O)[C@@H]1O [1-kestose]
anti-OVA IgG1 in the serum [2]: 31 unit/ml
proportion of Bifidobacterium proliferated to total bacterial count [1]: 12.59%
anti-OVA IgE in the serum [3]: 156 unit/ml
nonspecific IgE in the serum ([4]; before 381): 313 IU/ml
nonspecific IgE in the serum ([4]; before 505): 354 IU/ml
minimal effective dose ([5]; mean value): 16 mg/kg
minimal effective dose ([5]; subject A (67kg)): 15 mg/kg
minimal effective dose ([5]; subject B (56kg)): 18 mg/kg
minimal effective dose ([5]; subject C (59kg)): 17 mg/kg
minimal effective dose ([5]; subject D (63kg)): 16 mg/kg
effective 1-kestose amount ([5]; adult with a weight of at least 60kg): 1 g per day
1-kestose intake with no side effect ([6]; human, po): ≤ 400 mg/kg/day
diarrhea [6]: no diarrhea
diarrhea symptoms [6]: no diarrhea symptoms
effect on organs and blood component [6]: no effect on organs and blood component
mean nonspecific IgE ([7]; mean of 4 adult females, 3g once a day for 4 weeks, before 403.8): 298.8 IU/ml
decrease in mean nonspecific IgE ([7]; mean of 4 subjects, vs before taking): approximately 26%
nonspecific IgE ([7]; subject A, 3g once a day for 4 weeks, before 541): 298 IU/ml
decrease in nonspecific IgE ([7]; subject A, vs before taking): approximately 45%
nonspecific IgE ([7]; subject B, 3g once a day for 4 weeks, before 422): 282 IU/ml
decrease in nonspecific IgE ([7]; subject B, vs before taking): ≥ 32%
nonspecific IgE ([7]; subject C as printed, 3g once a day for 4 weeks, before 323): 275 IU/ml
decrease in nonspecific IgE ([7]; subject C as printed, vs before taking): approximately 25%
increase in nonspecific IgE ([7]; subject C, vs before taking): about 3%
effect on bowel movement [8]: improving bowel movement
C-reactive protein (CRP) value [9]: negative
effect on hepatic functions, other organs and blood components [9]: no effect on hepatic functions, etc., other organs and blood components
increase of mean IgA concentration in feces ([10]; after vs before taking 3g for one month): ≥ 1.7 times
mean IgA concentration in feces ([10]; mean of 4 adult males with allergic symptoms, 3g for one month, 0.61 before taking): 1.06 µg/mL
increase of IgA concentration in feces ([10]; subjects A to C, 3g for one month): twice or more
eruption (dermis severity, Japanese Dermatological Association method by region) ([11]; 13 infants 0 to 3 years, 1g or 2g a day for 12 weeks, p 0.0022 start vs 12 weeks, p 0.0025 start vs 4 to 8 weeks after completion): significant improvement in eruption
number of subjects with no deterioration or recurrence of eruption ([11]; of 11 subjects, 4 to 8 weeks after taking 1-kestose for 12 weeks): Seven
number of subjects who completely removed eruption ([11]; of 13 subjects, 4 to 8 weeks after taking 1-kestose for 12 weeks): 6
mean bifidobacterial occupancy in feces ([12]; 4 to 8 weeks after completion of 12 weeks intake): 32.7%
mean bifidobacterial occupancy in feces ([12]; 9 subjects, 6 weeks after taking): 42.3%
mean bifidobacterial occupancy in feces ([12]; 9 subjects, 12 weeks after taking, p 0.0308 vs start): 56.0%
mean bifidobacterial occupancy relative to the total bacterial count ([13]; mean, before 19.97%): 43.05%
bifidobacterial occupancy relative to the total bacterial count ([13]; subject A, before 11.67%): 52.38%
bifidobacterial occupancy relative to the total bacterial count ([13]; subject B, before 38.57%): 57.14%
bowel movement [14]: improved bowel movement
